Strand notation (5' to 3'): a small letter for the sugar, then the base; units joined by * are phosphorothioate-linked, units joined directly phosphodiester-linked; [ ] holds rarer units or linkages, { } end groups; capitals alone tell only the bases. e = 2'-O-(2-methoxyethyl) (MOE); [5mC] = 5-methylcytosine; d = 2'-deoxy (DNA)
Key:
human PKK mRNA [1] = test: Antisense inhibition of human PKK mRNA in HepaRG cells, 5,000 nM (Example 2); assay type: cell-based
In short: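 HepaRG cells, 20,000 per well, were electroporated with 5,000 nM MOE gapmer (phosphorothioate, 5-methylcytosine) and incubated about 24 hours. PKK mRNA was quantified by qRT-PCR with primer probe set RTS3454, normalized to RIBOGREEN total RNA, and expressed as percent inhibition versus untreated controls.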

human PKK mRNA [2] = test: Dose-dependent antisense inhibition of human PKK in HepaRG cells, 0.19-5.00 uM (Example 5); assay type: cell-based; settings: HepaRG cells; for percent inhibition of PKK at 0.19 μM / percent inhibition of PKK at 0.56 μM / percent inhibition of PKK at 1.67 μM / percent inhibition of PKK at 5.00 μM: electroporation, approximately 16 hours
In short: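 HepaRG cells (20,000/well) were electroporated with antisense oligonucleotide at 0.19, 0.56, 1.67 and 5.00 μM and treated for about 16 hours. PKK mRNA was quantified by qRT-PCR with primer probe set RTS3454, normalised to RIBOGREEN total RNA, and IC50 was derived per oligonucleotide.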

[3] = Table 8, HepaRG cells, electroporation with 5,000 nM antisense oligonucleotide, approx. 24 hours, PKK mRNA by RT-PCR (RTS3454), relative to untreated control cells
[4] = 4 point dose response, Table 36

546255 (e[5mC]*eT*eT*eT*eG*dT*dG*d[5mC]*dA*dA*dG*dT*d[5mC]*dT*d[5mC]*eT*eT*eG*eG*e[5mC]; antisense) [compound 546255]
% inhibition (human PKK mRNA [1]; [3]): 92% | percent inhibition of PKK at 0.19 μM (human PKK mRNA [2]; Table 35): 32% | percent inhibition of PKK at 0.56 μM (human PKK mRNA [2]; Table 35): 35% | percent inhibition of PKK at 1.67 μM (human PKK mRNA [2]; Table 35): 78% | percent inhibition of PKK at 5.00 μM (human PKK mRNA [2]; Table 35): 87% | IC50 (human PKK mRNA [2]; 4 point dose response, Table 35): 500 nM | percent inhibition of PKK mRNA, 0.19 μM (human PKK mRNA [2]; 0.19 μM antisense oligonucleotide): 5% | percent inhibition of PKK mRNA, 0.56 μM (human PKK mRNA [2]; 0.56 μM antisense oligonucleotide): 39% | percent inhibition of PKK mRNA, 1.67 μM (human PKK mRNA [2]; 1.67 μM antisense oligonucleotide): 82% | percent inhibition of PKK mRNA, 5.00 μM (human PKK mRNA [2]; 5.00 μM antisense oligonucleotide): 96% | IC50 (human PKK mRNA [2]; 0.19-5.00 μM): 800 nM

547712 (antisense e[5mC]*e[5mC]*e[5mC]*e[5mC]*eA*dT*dG*dG*dT*dA*d[5mC]*d[5mC]*dA*dA*dA*eG*e[5mC]*e[5mC]*eA*eT) [compound 547712]
% inhibition (human PKK mRNA [1]; HepaRG cells, 5,000 nM antisense oligonucleotide, 5-10-5 gapmers, Table 16): 79% | percent inhibition of PKK at 0.19 μM (human PKK mRNA [2]; Table 40): 0% | percent inhibition of PKK at 0.56 μM (human PKK mRNA [2]; Table 40): 5% | percent inhibition of PKK at 1.67 μM (human PKK mRNA [2]; Table 40): 21% | percent inhibition of PKK at 5.00 μM (human PKK mRNA [2]; Table 40): 62% | IC50 (human PKK mRNA [2]; 4 point dose response, Table 40): 3800 nM

547364 (eG*eA*eA*e[5mC]*e[5mC]*d[5mC]*dT*dG*dG*d[5mC]*dA*dA*d[5mC]*dA*dT*e[5mC]*e[5mC]*eA*e[5mC]*eA; antisense) [compound 547364]
% inhibition (human PKK mRNA [1]; Table 7, HepaRG cells, electroporation with 5,000 nM antisense oligonucleotide, approx. 24 hours, PKK mRNA by RT-PCR (RTS3454), relative to untreated control cells): 92% | percent inhibition of PKK at 0.19 μM (human PKK mRNA [2]; Table 36): 38% | percent inhibition of PKK at 0.56 μM (human PKK mRNA [2]; Table 36): 47% | percent inhibition of PKK at 1.67 μM (human PKK mRNA [2]; Table 36): 54% | percent inhibition of PKK at 5.00 μM (human PKK mRNA [2]; Table 36): 89% | IC50 (human PKK mRNA [2]; [4]): 600 nM

546287 (antisense eG*eT*eT*eG*eT*d[5mC]*d[5mC]*d[5mC]*d[5mC]*dA*dG*dT*dG*dT*dT*eA*e[5mC]*eA*e[5mC]*eA) [compound 546287]
% inhibition (human PKK mRNA [1]; [3]): 82% | percent inhibition of PKK at 0.19 μM (human PKK mRNA [2]; Table 38): 0% | percent inhibition of PKK at 0.56 μM (human PKK mRNA [2]; Table 38): 15% | percent inhibition of PKK at 1.67 μM (human PKK mRNA [2]; Table 38): 39% | percent inhibition of PKK at 5.00 μM (human PKK mRNA [2]; Table 38): 89% | IC50 (human PKK mRNA [2]; 4 point dose response, Table 38): 1700 nM

547360 (eA*eA*e[5mC]*e[5mC]*eA*dA*dT*dT*dT*d[5mC]*dT*dG*dA*dA*dA*eG*eG*eG*e[5mC]*eA; antisense) [compound 547360]
% inhibition (human PKK mRNA [1]; HepaRG cells, electroporation with 5,000 nM antisense oligonucleotide, approximately 24 hours, PKK mRNA by RT-PCR (RTS3454), relative to untreated control cells, Table 6 experiment): 88% | percent inhibition of PKK at 0.19 μM (human PKK mRNA [2]; Table 37): 8% | percent inhibition of PKK at 0.56 μM (human PKK mRNA [2]; Table 37): 27% | percent inhibition of PKK at 1.67 μM (human PKK mRNA [2]; Table 37): 76% | percent inhibition of PKK at 5.00 μM (human PKK mRNA [2]; Table 37): 76% | IC50 (human PKK mRNA [2]; 4 point dose response, Table 37): 800 nM

547616 (antisense eT*eG*eT*e[5mC]*e[5mC]*dT*dA*dT*dA*dT*d[5mC]*dA*d[5mC]*dT*dG*eT*eA*e[5mC]*e[5mC]*eT) [compound 547616]
% inhibition (human PKK mRNA [1]; human PKK mRNA in HepaRG cells, 5-10-5 gapmers, Table 14): 86% | percent inhibition of PKK at 0.19 μM (human PKK mRNA [2]; Table 39): 26% | percent inhibition of PKK at 0.56 μM (human PKK mRNA [2]; Table 39): 50% | percent inhibition of PKK at 1.67 μM (human PKK mRNA [2]; Table 39): 72% | percent inhibition of PKK at 5.00 μM (human PKK mRNA [2]; Table 39): 89% | IC50 (human PKK mRNA [2]; 4 point dose response, Table 39): 600 nM

546894 (eT*e[5mC]*eA*e[5mC]*eT*dG*dT*d[5mC]*d[5mC]*dT*dA*dT*dG*dT*d[5mC]*eA*e[5mC]*eT*eG*eT; antisense) [compound 546894]
% inhibition (human PKK mRNA [1]; human PKK mRNA, HepaRG cells, 5-10-5 motif oligonucleotides targeting SEQ ID NO: 1 and 10): 91% | percent inhibition of PKK at 0.19 μM (human PKK mRNA [2]; Table 36): 15% | percent inhibition of PKK at 0.56 μM (human PKK mRNA [2]; Table 36): 47% | percent inhibition of PKK at 1.67 μM (human PKK mRNA [2]; Table 36): 50% | percent inhibition of PKK at 5.00 μM (human PKK mRNA [2]; Table 36): 93% | IC50 (human PKK mRNA [2]; [4]): 900 nM
